2 molecules from patent US20240300932A1, “N-PHENYLIMINE DERIVATIVE AND PREPARATION METHOD AND USE THEREOF” (Guizhou University, priority 2023, published 2024) can be followed below.

Common to all, as to experiment: Post-emergence herbicidal activity test (stem and leaf spray, pot culture)
Holding throughout (assay type): in vivo
What all share (conditions): 3 weeks after spraying

For one experiment, the system named is Trifoliumre pensL. How it is done: (1) Post-Emergence Stem and Leaf Spray Treatment: The weeds were cultivated in a 180 mm×140 mm plastic nutrient pot by a pot-culture method, placed in an enamel tray, and the plastic nutrient pots were filled with surface soil (⅘ of a depth) collected from a farmland and air-dried and sieved, and a soil humidity was controlled at 20% in the initial stage. Weed seeds with plump and uniform grains were selected, soaked in warm water at 25° C. for 6 h, and germinated in a biochemical incubator (dark) at 28° C. The freshly exposed weed seeds were evenly placed on the soil surface, and then covered with 0.5 cm to 1 cm of soil according to the size of the seeds. The weeds are cultivated in a controlled sunlight greenhouse at 20° C. to 30° C., under natural light, and a relative humidity of 57% to 72%. The soil was loam, including 1.63% of organic matters, with a pH value of 7, 84.3 mg/kg of alkaline nitrogen, 38.5 mg/kg of available phosphorus, and 82.1 mg/kg of available potassium. Each treatment was repeated 2 times, each treatment included 12 pots, and 20 weed seeds were sown in each pot. Pesticide was applied in the test for 1 time in total. When the weeds grew to 1.5- to 2-leaf stage, thinning was conducted, with 10 weeds in each pot, and 30 weeds were kept in each treatment. The cultivated weeds were placed on trays with an area of 0.1 m^2, and stems and leaves were sprayed with a sprayer. After applying a pesticide, the pesticide applied weeds were moved into a greenhouse for routine cultivation. 2 weeks after sowing, the test plants were treated at the 2- to 3-leaf stage: the compounds of the present disclosure for testing were dissolved in acetone separately, and added with Tween 80, an emulsifiable oil of 1.5 liters/ha methyl oleate was added as a synergist, and an obtained mixture was diluted with certain water to a certain concentration solution. The solution was sprayed onto the plants using a spray tower. After spraying, the weeds were cultivated in the greenhouse for 3 weeks, and the experimental effects on the weeds were counted. The effective concentrations of the compounds were 10 g/mu, 5 g/mu, and 2.5 g/mu, the experiment was repeated three times, and an average result was taken.

Another experiment concerns Portulaca oleracea. As to the method: (§1) The weeds were cultivated in a 180 mm×140 mm plastic nutrient pot by a pot-culture method, placed in an enamel tray, and the plastic nutrient pots were filled with surface soil (⅘ of a depth) collected from a farmland and air-dried and sieved, and a soil humidity was controlled at 20% in the initial stage. Weed seeds with plump and uniform grains were selected, soaked in warm water at 25° C. for 6 h, and germinated in a biochemical incubator (dark) at 28° C. The freshly exposed weed seeds were evenly placed on the soil surface, and then covered with 0.5 cm to 1 cm of soil according to the size of the seeds. The weeds are cultivated in a controlled sunlight greenhouse at 20° C. to 30° C., under natural light, and a relative humidity of 57% to 72%. The soil was loam, including 1.63% of organic matters, with a pH value of 7, 84.3 mg/kg of alkaline nitrogen, 38.5 mg/kg of available phosphorus, and 82.1 mg/kg of available potassium.
(§2) Each treatment was repeated 2 times, each treatment included 12 pots, and 20 weed seeds were sown in each pot. Pesticide was applied in the test for 1 time in total. When the weeds grew to 1.5- to 2-leaf stage, thinning was conducted, with 10 weeds in each pot, and 30 weeds were kept in each treatment.
(§3) The cultivated weeds were placed on trays with an area of 0.1 m^2, and stems and leaves were sprayed with a sprayer. After applying a pesticide, the pesticide applied weeds were moved into a greenhouse for routine cultivation.
(§4) 2 weeks after sowing, the test plants were treated at the 2- to 3-leaf stage: the compounds of the present disclosure for testing were dissolved in acetone separately, and added with Tween 80, an emulsifiable oil of 1.5 liters/ha methyl oleate was added as a synergist, and an obtained mixture was diluted with certain water to a certain concentration solution. The solution was sprayed onto the plants using a spray tower. After spraying, the weeds were cultivated in the greenhouse for 3 weeks, and the experimental effects on the weeds were counted. The effective concentrations of the compounds were 10 g/mu, 5 g/mu, and 2.5 g/mu, the experiment was repeated three times, and an average result was taken.
(§5) The activity level criteria for plant destruction (i.e. growth control rate) are as follows: • Grade 5: the growth control rate is greater than or equal to 85%; • Grade 4: the growth control rate is greater than or equal to 60% and less than 85%; • Grade 3: the growth control rate is greater than or equal to 40% and less than 60%; • Grade 2: the growth control rate is greater than or equal to 20% and less than 40%; • Grade 1: the growth control rate is greater than or equal to 5% and less than 20%; and • Grade 0: the growth control rate is less than 5%.
(§6) The growth control rate is a fresh weight control rate.

A further experiment relates to Amaranthus retroflexus. As to the method:
as §1, §2, §3, §4, §5, §6

A further experiment deals with Setaria viridis. How it is done:
as §1, §2, §3, §4, §5, §6

A further experiment deals with Abutilon theophrasti. How it is done: as §1, §2, §3, §4, §5, §6
A further experiment deals with Echinochloa crusgalli. As to the method: as §1, §2, §3, §4, §5, §6

The structures appear in SMILES notation.

In the case of `O=C1C2=C(CCCC2)C(=O)N1c1ccc(Cl)c(OCc2nc(-c3cc(F)cc(Br)c3)no2)c1F` [Compound A13, 2-(3-(3-(3-(3-bromo-5-fluorophenyl)-1,2,4-oxadiazole-5-yl)methoxy)-4-chloro-2-fluorophenyl)-4,5,6,7-tetrahydro-1H-isoindole-1,3(2H)-dione], the “Post-emergence herbicidal activity, Trifoliumre pensL. (grade)” value in the experiment on Trifoliumre pensL. (dosage 2.5 g/mu) is 4 (Grade 4: the growth control rate is greater than or equal to 60% and less than 85%); in the experiment with Trifoliumre pensL. (dosage 5 g/mu) it was 5 (Grade 5: the growth control rate is greater than or equal to 85%); in the experiment on Trifoliumre pensL. (dosage 10 g/mu), 5 (Grade 5: the growth control rate is greater than or equal to 85%). The “Post-emergence herbicidal activity, P. oleracea (grade)” value with Portulaca oleracea (dosage 2.5 g/mu) is 4 (Grade 4: the growth control rate is greater than or equal to 60% and less than 85%); in the experiment with Portulaca oleracea (dosage 5 g/mu), 5 (Grade 5: the growth control rate is greater than or equal to 85%); in the experiment on Portulaca oleracea (dosage 10 g/mu), 5 (Grade 5: the growth control rate is greater than or equal to 85%). The “Post-emergence herbicidal activity, A. retroflexus (grade)” value in the experiment on Amaranthus retroflexus (dosage 2.5 g/mu), in the experiment on Amaranthus retroflexus (dosage 5 g/mu) and with Amaranthus retroflexus (dosage 10 g/mu) was 5 (Grade 5: the growth control rate is greater than or equal to 85%) in each case. Moreover, the “Post-emergence herbicidal activity, S. viridis (grade)” value is 2 (Grade 2: the growth control rate is greater than or equal to 20% and less than 40%) with Setaria viridis (dosage 2.5 g/mu); 3 (Grade 3: the growth control rate is greater than or equal to 40% and less than 60%) in the experiment on Setaria viridis (dosage 5 g/mu); 4 (Grade 4: the growth control rate is greater than or equal to 60% and less than 85%) in the experiment on Setaria viridis (dosage 10 g/mu). In addition, the “Post-emergence herbicidal activity, A. theophrasti (grade)” value in the experiment on Abutilon theophrasti (dosage 2.5 g/mu), in the experiment on Abutilon theophrasti (dosage 5 g/mu) and with Abutilon theophrasti (dosage 10 g/mu) was 5 (Grade 5: the growth control rate is greater than or equal to 85%) throughout. Moreover, the “Post-emergence herbicidal activity, E. crusgalli (grade)” value was 1 (Grade 1: the growth control rate is greater than or equal to 5% and less than 20%) in the experiment with Echinochloa crusgalli (dosage 2.5 g/mu); 2 (Grade 2: the growth control rate is greater than or equal to 20% and less than 40%) in the experiment on Echinochloa crusgalli (dosage 5 g/mu); 3 (Grade 3: the growth control rate is greater than or equal to 40% and less than 60%) with Echinochloa crusgalli (dosage 10 g/mu).

On to `O=C1C2=C(CCCC2)C(=O)N1c1cc(OCc2nnc(-c3ccc(I)cc3)o2)c(Cl)cc1F` [Compound B17], for which the “Post-emergence herbicidal activity, Trifoliumre pensL. (grade)” value in the experiment on Trifoliumre pensL. (dosage 2.5 g/mu), with Trifoliumre pensL. (dosage 5 g/mu) and in the experiment with Trifoliumre pensL. (dosage 10 g/mu) was 5 (Grade 5: the growth control rate is greater than or equal to 85%) throughout. Also, the “Post-emergence herbicidal activity, P. oleracea (grade)” value in the experiment with Portulaca oleracea (dosage 2.5 g/mu), in the experiment with Portulaca oleracea (dosage 5 g/mu) and in the experiment on Portulaca oleracea (dosage 10 g/mu) was 5 (Grade 5: the growth control rate is greater than or equal to 85%) each time. Moreover, the “Post-emergence herbicidal activity, A. retroflexus (grade)” value in the experiment on Amaranthus retroflexus (dosage 2.5 g/mu), in the experiment on Amaranthus retroflexus (dosage 5 g/mu) and in the experiment with Amaranthus retroflexus (dosage 10 g/mu) was 5 (Grade 5: the growth control rate is greater than or equal to 85%) in each case. Further, the “Post-emergence herbicidal activity, S. viridis (grade)” value was 2 (Grade 2: the growth control rate is greater than or equal to 20% and less than 40%) with Setaria viridis (dosage 2.5 g/mu); 3 (Grade 3: the growth control rate is greater than or equal to 40% and less than 60%) with Setaria viridis (dosage 5 g/mu); 4 (Grade 4: the growth control rate is greater than or equal to 60% and less than 85%) with Setaria viridis (dosage 10 g/mu). In addition, the “Post-emergence herbicidal activity, A. theophrasti (grade)” value with Abutilon theophrasti (dosage 2.5 g/mu), with Abutilon theophrasti (dosage 5 g/mu) and in the experiment on Abutilon theophrasti (dosage 10 g/mu) was 5 (Grade 5: the growth control rate is greater than or equal to 85%) throughout. The “Post-emergence herbicidal activity, E. crusgalli (grade)” value in the experiment on Echinochloa crusgalli (dosage 2.5 g/mu) is 1 (Grade 1: the growth control rate is greater than or equal to 5% and less than 20%); with Echinochloa crusgalli (dosage 5 g/mu), 2 (Grade 2: the growth control rate is greater than or equal to 20% and less than 40%); in the experiment on Echinochloa crusgalli (dosage 10 g/mu), 3 (Grade 3: the growth control rate is greater than or equal to 40% and less than 60%).
